# Assay: Human HepG2 cell viability assay in 384 well format
# Format: toxicity, cell-based
# Set-up: dose 125 nL, time 70.5 hour; concentration not given beside the values
# Details: HepG2 cells, read-out: Inhibition
row,Structure (SMILES),cytotoxicity at 70.5 h
1,CS(=O)(=O)CCNC(=O)N1CC2(CCCC2)c2ccccc21,0.304%
2,O=C(NCCNC(=O)C1CC1)c1sccc1Br,-6.03%
3,Cc1ccc(N2CCCC(N(C)c3ncnc4c3CCC4)C2)nn1 (stereo not drawn),2.74%
4,Cn1cc(C2CCCN2C(=O)c2ccc(NC3CC3)nc2)cn1 (stereo not drawn),0.0682%
5,COc1ccc(CNC(=O)NC2CCC(O)CC2)c(C(F)(F)F)c1 (stereo not drawn),-4.62%
6,CCc1ccsc1C(=O)NC(C#N)CC(C)C (stereo not drawn),-2.59%
7,COc1ccc(C2(c3nc(-c4cnn(C)c4)no3)CCOCC2)cc1,-3.48%
8,CC(C)N(C)C(=O)C1=NOC2(CCN(C(=O)c3ccnnc3)C2)C1 (stereo not drawn),-1.5%
9,CCc1nc(C(=O)N2CCN(Cc3ccc(Cl)cc3)CC2)c[nH]1,-2.01%
10,CN(C)C(=O)[C@H]1CCS(=O)(=O)[C@@H]2CN(c3ncccn3)C[C@H]12,-4.18%
11,Cc1cc(C)n(CC2CCCCN2CC(=O)Nc2nncs2)n1 (stereo not drawn),-7.4%
12,Cc1noc([C@H]2C[C@@H]3CCN(C(=O)N(C)C)C[C@H]3O2)n1,-4.62%
13,c1nc(NCC2(N3CCOCC3)CCSC2)c2sccc2n1 (stereo not drawn),-4.54%
14,O=C(N1CCOCC1)N1C[C@H]2CN(Cc3nccs3)C[C@H]2C1,3.41%
15,CC(C)NC(=O)Nc1ccccc1CN1CCOCC1,-5.87%
16,Fc1ccc2c(c1)CCC2NCc1ccc(N2CCOCC2)cc1 (stereo not drawn),7.55%
17,CCc1nnc(CNC2CCc3nc(C(C)C)nn3C2)o1 (stereo not drawn),0.155%
18,CC(C)c1cc(CN(C)C(=O)CN2CCCCC2=O)no1,13.9%
19,CCCn1cc(C(=O)NCC(=O)NC2CC2)c(C)n1,-0.483%
20,O=C(NCc1cc[nH]n1)N(CCCO)C1CCc2ccccc21 (stereo not drawn),-0.509%
21,Fc1cccc(N2CCCC3(CN(Cc4cccnc4)CCO3)C2)c1 (stereo not drawn),-6.89%
22,O=C(NCc1csc(-c2cccs2)n1)C1NCCc2[nH]cnc21 (stereo not drawn),-19.8%
23,Cc1csc(S(=O)(=O)N2CCN(C)C3(CCC(=O)N(C)CC3)C2)c1 (stereo not drawn),-11.5%

row,Structure (SMILES),cytotoxicity at 70.5 h
1,CC1c2ncc(COCC3CCCC3)n2CCN1S(=O)(=O)N(C)C (stereo not drawn),0.773%
2,CCCc1noc(C(C)N2CCN(c3ccc(C#N)cn3)CC2)n1 (stereo not drawn),-10.8%
3,CCNc1ccnc(NC2CCN(CC(N)=O)CC2)n1,14%
4,Cc1nc(Cn2cnc3c(c(Br)nn3C)c2=O)cs1,11.6%
5,CC(C)(C)c1ncc(C(=O)N2CCN(C(=O)c3ccc[nH]3)CC2)c(O)n1,-2.76%
6,CCc1ncncc1C(=O)N1CCN(Cc2ccco2)CC1,10.8%
7,CN(CCc1cnn(C)c1)C(=O)C(c1ccccc1F)N(C)C (stereo not drawn),0.281%
8,CNC(=O)NC(=O)CCN1CCCC1c1nc(C2CCCCC2)co1 (stereo not drawn),-7.7%
9,COc1cccc2c1OCC(CNc1ccc(C)nn1)C2 (stereo not drawn),-3.11%
10,CCN(CC)CCc1nc2c([nH]1)CC(c1ccc(Cl)cc1)CNC2=O (stereo not drawn),-3.81%
11,O=C(Cc1cccs1)N1CCC(O)(CN2CCc3ccccc3C2)C1 (stereo not drawn),-4.88%
12,Cc1cc(C)cc(C(C)NC(=O)c2ccc(CS(C)(=O)=O)o2)c1 (stereo not drawn),-3.42%
13,CC(C)CCC(=O)N1C[C@H]2CCN[C@H]2C1,-3.29%
14,CCNC(=O)NC(=O)CNC(C)(C)c1ccc2c(c1)OCO2,-4.4%
15,CCCNC(=O)c1cncc(CC2CCCN(C)C2)c1 (stereo not drawn),-6.34%
16,CCN1CC(O)CN(C(=O)c2cccc(C(F)(F)F)c2)CC1=O (stereo not drawn),-4.06%
17,CC(C)c1cc(C(F)(F)F)n2nc(C3CCN(S(C)(=O)=O)C3)cc2n1 (stereo not drawn),-1.05%
18,Cc1ccc(C(=O)NCc2ccnc(N3CCN(C)CC3)c2)cn1,-10%
19,Cc1ccc(N2CC3(COCCN(Cc4cccnc4)C3)OCC2=O)s1 (stereo not drawn),26.6%
20,CNC(=O)[C@H]1C[C@@H]2CN(Cc3ccccc3)C[C@H]1O2,-5.88%
21,Cn1cc(CN2CCOC(c3cccc(-c4cccc(F)c4)n3)C2)cn1 (stereo not drawn),-4.34%
22,CN1CCCc2c1nc1c(c2N)CCC1,-7.63%
23,CC(C)n1cnnc1CN(C)C(=O)C1CCCN(CC(N)=O)C1 (stereo not drawn),-10.5%

row,Structure (SMILES),cytotoxicity at 70.5 h
1,CC(C)C1SCC(=O)Nc2c1cnn2-c1ccc(Cl)cc1 (stereo not drawn),-1.66%
2,COC[C@@]12CC[C@@H](N3CCOCC3)C[C@H]1CCN(c1ncccc1Cl)C2,-4.77%
3,Cc1nc(C)n(CC2CCCN(CC(=O)Nc3ccncc3)C2)n1 (stereo not drawn),-5.01%
4,O=C(NCCOc1ccc(F)c(F)c1)NCc1ccncc1,-11.2%
5,Cc1ccc(C#N)c(N2CCC3(CCCN(C4CCOCC4)C3=O)C2)n1 (stereo not drawn),-1.26%
6,CCOC(=O)CCCNC(=O)CN1CCN(c2ncccn2)CC1,-13.6%
7,CCS(=O)(=O)N1CCc2cc(C(=O)NC)c(N(C)C)nc2CC1,5.95%
8,N#Cc1cn(C2CC2)c(=O)n(Cc2noc(-c3ccsc3)n2)c1=O,-14%
9,CC(C)c1nc(CN2CCCC2Cn2cncn2)no1 (stereo not drawn),5.22%
10,Cc1nnc(C(C)N2CCN(Cc3ccc(C#N)cc3)CC2)o1 (stereo not drawn),-6.02%
11,Cc1nc(CN2CCN(S(=O)(=O)N3CCCCC3)CC2)oc1C,-4.75%
12,CC(C)(C)c1cc(C(=O)NCCn2nc3ccccn3c2=O)[nH]n1,-4.69%
13,O=S(=O)(c1cccnc1)N1CCCC1COc1ccccc1 (stereo not drawn),-4.52%
14,CCn1c(C)cc(C(=O)N2CCc3nnc(N)cc3C2)c1C,-0.105%
15,Cc1c(NC(C)C(C)C)cccc1C(=O)NCc1nccn1C (stereo not drawn),-3.37%
16,CC(Cn1cccn1)NC(=O)NCc1ccoc1 (stereo not drawn),-10.1%
17,COCCCNC(=O)CN(C)C(=O)c1cc(C)ccc1O,-9.64%
18,Cc1nnsc1-c1nnc2sc(C(C)C)nn12,3.22%
19,NC(=O)CN1C(=O)CO[C@H]2CN(Cc3ccc(F)c(F)c3)C[C@H]21,-3.9%
20,COC(C)c1noc(CN(C)c2nccnc2C#N)n1 (stereo not drawn),1.72%
21,Cn1c(=O)ccn(CC(=O)N2CCCC(n3cccn3)C2)c1=O (stereo not drawn),-9.63%
22,Cc1cnccc1CN1C[C@@H](O)[C@H](Oc2cccc(F)c2)C1,-3.81%
23,COC(=O)CC(NC(=O)c1cccc(CS(C)(=O)=O)c1)c1cccs1 (stereo not drawn),-4.71%

row,Structure (SMILES),cytotoxicity at 70.5 h
1,CC(C)(C)CC(NC(=O)N1CCC(C(N)=O)CC1)C(F)(F)F (stereo not drawn),5.66%
2,CSc1ccc(NC(=O)COCc2ccccc2)nc1,15%
3,COCCC(=O)N1CCC(c2cc(O)n(C)n2)C1 (stereo not drawn),1.63%
4,CN(C)Cc1cc(C2CCCCN2S(=O)(=O)c2cccc(Cl)c2)nn1C (stereo not drawn),-3.27%
5,N#Cc1ccc(C(=O)N2CC[C@H]3[C@H]2CCN3CC2CC2)cc1,-10.6%
6,O=C(CN(CC1CCC1)CC(F)(F)F)N1CCOCC1,-5.14%
7,CS(=O)(=O)c1nccn1Cc1ccc(C(N)=O)cc1,-4.15%
8,CCOc1ccccc1-n1c(C2CCC2)n[nH]c1=O,-18.9%
9,COCC(C)(C)NS(=O)(=O)C1CS(=O)(=O)c2ccccc21 (stereo not drawn),-17.4%
10,COc1ccc2c(c1)C(C(=O)N(C)CCCc1cnn(C)c1)CC(=O)N2 (stereo not drawn),-12.9%
11,CC(C)n1cc(N2CC(C(=O)N3CCCC3)CC2=O)cn1 (stereo not drawn),-6.71%
12,CC(C)Nc1ccc2nc(C3CCNCC3)nn2c1,9.18%
13,CC(CCc1ccccc1F)C(=O)NS(C)(=O)=O (stereo not drawn),-8.18%
14,CC1(C)CC(=O)N(CC(=O)Nc2ccon2)c2ccccc21,-6.95%
15,Cn1cc(N2CC3(CCN(C(=O)c4cccn4C)CC3)OCC2=O)cn1,-12.8%
16,COCCn1ccc(=O)c(OCC(=O)Nc2ccc(OC)c(Cl)c2)c1C,-5.11%
17,O=C1N(Cc2ccc(F)c(F)c2)CCCC12CCN(C1CCCCC1)C2 (stereo not drawn),1.47%
18,O=C(CCC1CCN(Cc2ccncc2)CC1)Nc1ccccc1Cl,0.0549%
19,c1ccc(CN2C[C@@H]3COC[C@]3(COCC3CCOCC3)C2)nc1,1.04%
20,CCCN(Cc1cnn(C)c1)S(=O)(=O)c1ccc(F)c(C#N)c1,-7.37%
21,CCc1nc(C2CCCN2Cc2ccno2)no1 (stereo not drawn),-14.3%
22,CCc1nc(CC(=O)N2CCC(C(=O)N3CCCC3)CC2)cs1,-9.83%
23,CC(C)c1noc(C(C)N2CCN(CCc3ccncc3)CC2)n1 (stereo not drawn),-16.3%

row,Structure (SMILES),cytotoxicity at 70.5 h
1,CCc1ccc(S(=O)(=O)NCC2CCN(c3cnccn3)CC2)s1,-10.3%
2,Cc1ccccc1CC(=O)N(C)C1CCCC1,-4.43%
3,CCCn1ncc(C(=O)N2CCN(C3Cc4ccccc4C3)CC2)c1C,-0.105%
4,Cc1nc(Nc2ncccn2)cc(C2CCN(CC(C)C)C2)n1 (stereo not drawn),-15.1%
5,Clc1ccccc1Cc1noc(CN2CCCC(CN3CCCC3)C2)n1 (stereo not drawn),-3.9%
6,O=C(NCCC(O)c1ccccc1)c1ccco1 (stereo not drawn),-8.79%
7,NC(=O)c1ccc(N2CCCCC2)c(NC(=O)c2ccc(F)cc2F)c1,3.5%
8,COCC(=O)N(Cc1cccnc1)CC1CCCN(C2CCCCC2)C1 (stereo not drawn),-5.51%
9,Cc1cc(CN2CCN(c3ccc4nncn4n3)CC2)no1,-11.5%
10,CC(C)n1nccc1CN1Cc2nccn2CC1c1ccccc1 (stereo not drawn),-7.71%
11,CCOc1ccc(NCc2cnc(N3CCN(C)CC3)nc2)cn1,-1.43%
12,Cc1ccc(C(NC(=O)[C@H]2CC[C@@H](O)CC2)c2cccnc2)cc1C (stereo partly drawn),-6.91%
13,O=C(NC1CCc2c(ccc(=O)n2CC2CC2)C1)c1ccsc1 (stereo not drawn),-1.91%
14,c1csc(-c2nc(CN3CCN(c4cnccn4)CC3)co2)c1,-18.4%
15,O=C(NCc1ccco1)[C@H]1CC[C@@H]2[C@@H](CCN2c2ncc(F)cn2)O1,-10.2%
16,Cc1ccc2nc(-c3nc4c([nH]3)CC(C)(C)CNC4=O)cn2c1,7.51%
17,CCc1ccc(CN2Cc3nccn3CC(CN3CCOCC3)C2)o1 (stereo not drawn),-5.92%
18,CC(C)n1cnnc1CN(C)Cc1cnc(-c2cccs2)nc1,0.122%
19,CC(=O)N[C@H]1CN(CC(=O)NCc2ccccc2C)C[C@@H]1C(C)C,-4.45%
20,O=C(Cc1ccsc1)N1Cc2nc(CN3CCCCC3)oc2C1,-4.42%
21,Cc1cc(C(=O)N2CC[C@@H](O)[C@@H]2Cc2ccccc2)no1,-11.3%
